Laboratory results as given in US10681909B2, “Herbicidal triazoles” (FMC Corporation, priority 2014, dated 2020).

What was measured:
[1] = system: beggarticks; experiment: Test E postemergence; format: in vivo, Bidens pilosa; conditions: scale 0 to 100
From the text: (§1) Seeds of plant species selected from corn (Zea mays), soybean (Glycine max), lambsquarters (Chenopodium album), poinsettia, wild (wild poinsettia, Euphorbia heterophylla), pigweed, palmer (palmer pigweed, Amaranthus palmeri), waterhemp (common waterhemp, Amaranthus rudis), surinam grass (Brachiaria decumbens), crabgrass, large (large crabgrass, Digitaria sanguinalis), crabgrass, Brazilian (Brazilian crabgrass, Digitaria horizontalis), panicum, fall (fall panicum, Panicum dichotomiflorum), foxtail, giant (giant foxtail, Setaria faberii), foxtail, green (green foxtail, Setaria viridis), goosegrass (Eleusine indica), johnsongrass (Sorghum halepense), ragweed (common ragweed, Ambrosia elatior), barnyardgrass (Echinochloa crus-galli), sandbur (southern sandbur, Cenchrus echinatus), arrowleaf sida (Sida rhombifolia), ryegrass, Italian (Italian ryegrass, Lolium multiflorum), dayflower, VA (Virginia dayflower, Commelina virginica), field bindweed (Convolvulus arvensis), cocklebur (common cocklebur, Xanthium strumarium), morningglory (Ipomoea coccinea), nightshade (eastern black nightshade, Solanum ptycanthum), kochia (Kochia scoparia), nutsedge, yellow (yellow nutsedge, Cyperus esculentus), smartweed (ladysthumb smartweed, Polygonum persicaria), velvetleaf (Abutilon theophrasti), horseweed (Conyza canadensis), and beggarticks (hairy beggarticks, Bidens pilosa), were planted into a silt loam soil and treated preemergence with test chemicals formulated in a non-phytotoxic solvent mixture which included a surfactant.
(§2) At the same time, plants from these crop and weed species and also waterhemp_RES1, (ALS & Triazine resistant common waterhemp, Amaranthus rudis), and waterhemp_RES2, (ALS & HPPD resistant common waterhemp, Amaranthus rudis) were planted in pots containing Sunshine Redi-Earth® planting medium comprising spaghnum peat moss, vermiculite, starter nutrients and dolomitic limestone were treated with postemergence applications of test chemicals formulated in the same manner. Plants ranged in height from 2 to 18 cm for postemergence treatments (1- to 4-leaf stage). Treated plants and controls were maintained in a greenhouse for 14 to 21 d, after which time all species were compared to controls and visually evaluated. Plant response ratings, summarized in Table E, are based on a scale of 0 to 100 where 0 is no effect and 100 is complete control. A dash (-) response means no test result.

[2] = system: canarygrass; experiment: Test D postemergence; format: in vivo, Phalaris minor; conditions: scale 0 to 100
From the text: (§3) Seeds of plant species selected from bluegrass (annual bluegrass, Poa annua), blackgrass (Alopecurus myosuroides), canarygrass (Phalaris minor), chickweed (common chickweed, Stellaria media), galium (catchweed bedstraw, Galium aparine), bromegrass, down (downy bromegrass, Bromus tectorum), Russian thistle (Salsola kali), field poppy (Papaver rhoeas), field violet (Viola arvensis), foxtail, green (green foxtail, Setaria viridis), deadnettle (henbit deadnettle, Lamium amplexicaule), ryegrass, Ital. (Italian ryegrass, Lolium multiflorum), kochia (Kochia scoparia), lambsquarters (Chenopodium album), oilseed rape (Brassica napus), pigweed (Amaranthus retroflexus), chamomile (scentless chamomile, Matricaria inodora), speedwell (bird's-eye speedwell, Veronica persica), barley, spring (spring barley, Hordeum vulgare), wheat, spring (spring wheat, Triticum aestivum), buckwheat, wild (wild buckwheat, Polygonum convolvulus), wild mustard (Sinapis arvensis), oat, wild (wild oat, Avena fatua), radish, wild (wild radish, Raphanus raphanistrum), […]), barley, winter (winter barley, Hordeum vulgare), and wheat, winter (winter wheat, Triticum aestivum) were planted into a silt loam soil and treated preemergence with test chemicals formulated in a non-phytotoxic solvent mixture which included a surfactant. At the same time, these species were planted in pots containing Sunshine Redi-Earth® planting medium comprising spaghnum peat moss, vermiculite, starter nutrients and dolomitic limestone and treated with postemergence applications of the test chemicals formulated in the same manner. Plants ranged in height from 2 to 18 cm (1- to 4-leaf stage). Treated plants and controls were maintained in a controlled growth environment for 14 to 21 d after which time all species were compared to controls and visually evaluated. […] A dash (-) response means no test result.

[3] = system: corn; experiment: Test E postemergence; format: in vivo, Zea mays; conditions: scale 0 to 100
From the text: as §1, §2

[4] = system: chickweed; experiment: Test D postemergence; format: in vivo, Stellaria media; conditions: scale 0 to 100
From the text: as §3

[5] = system: kochia; experiment: Test E postemergence; format: in vivo, Kochia scoparia; conditions: scale 0 to 100
From the text: as §1, §2

[6] = system: ryegrass, Italian; experiment: Test E postemergence; format: in vivo, Lolium multiflorum; conditions: scale 0 to 100
From the text: as §1, §2

[7] = system: waterhemp_RES1 (ALS & Triazine resistant common waterhemp); experiment: Test E postemergence; format: in vivo, Amaranthus rudis; conditions: scale 0 to 100
From the text: as §1, §2

[8] = system: waterhemp; experiment: Test E postemergence; format: in vivo, Amaranthus rudis; conditions: scale 0 to 100
From the text: as §1, §2

[9] = system: waterhemp_RES2 (ALS & HPPD resistant common waterhemp); experiment: Test E postemergence; format: in vivo, Amaranthus rudis; conditions: scale 0 to 100
From the text: as §1, §2

[10] = system: bromegrass, down; experiment: Test D postemergence; format: in vivo, Bromus tectorum; conditions: scale 0 to 100
From the text: as §3

[11] = system: foxtail, green; experiment: Test D postemergence; format: in vivo, Setaria viridis; conditions: scale 0 to 100
From the text: as §3

[12] = system: velvetleaf; experiment: Test E preemergence; format: in vivo, Abutilon theophrasti; conditions: scale 0 to 100
From the text: as §1, §2

[13] = system: crabgrass, Brazilian; experiment: Test E preemergence; format: in vivo, Digitaria horizontalis; conditions: Brazil, scale 0 to 100
From the text: as §1, §2

[14] = system: goosegrass; experiment: Test E preemergence; format: in vivo, Eleusine indica; conditions: scale 0 to 100
From the text: as §1, §2

## COc1nc(-c2ccc(Cl)cc2)nn1Cc1ccnc(C(F)(F)F)c1 [Compound 28]
[1]; 31 g ai/ha
  Plant response rating: 50
[1]; 62 g ai/ha
  Plant response rating: 60
[1]; 125 g ai/ha
  Plant response rating: 50
[1]; 250 g ai/ha
  Plant response rating: 60
[2]; 16 g ai/ha
  Plant response rating: Canarygrass: 25
[2]; 31 g ai/ha
  Plant response rating: Canarygrass: 30
[2]; 62 g ai/ha
  Plant response rating: Canarygrass: 45
[2]; 125 g ai/ha
  Plant response rating: Canarygrass: 50
[3]; 31 g ai/ha
  Plant response rating: 15
[3]; 62 g ai/ha
  Plant response rating: 20
[3]; 125 g ai/ha
  Plant response rating: 20
[3]; 250 g ai/ha
  Plant response rating: 30
[4]; 16 g ai/ha
  Plant response rating: Chickweed: 65
[4]; 31 g ai/ha
  Plant response rating: Chickweed: 70
[4]; 62 g ai/ha
  Plant response rating: Chickweed: 70
[4]; 125 g ai/ha
  Plant response rating: Chickweed: 90
[5]; 31 g ai/ha
  Plant response rating: 90
[5]; 62 g ai/ha
  Plant response rating: 95
[5]; 125 g ai/ha
  Plant response rating: 95
[5]; 250 g ai/ha
  Plant response rating: 95
[6]; 31 g ai/ha
  Plant response rating: 10
[6]; 62 g ai/ha
  Plant response rating: 20
[6]; 125 g ai/ha
  Plant response rating: 25
[6]; 250 g ai/ha
  Plant response rating: 30
[7]; 31 g ai/ha
  Plant response rating: 95
[7]; 62 g ai/ha
  Plant response rating: 95
[7]; 125 g ai/ha
  Plant response rating: 95
[7]; 250 g ai/ha
  Plant response rating: 95
[8]; 31 g ai/ha
  Plant response rating: 90
[8]; 62 g ai/ha
  Plant response rating: 90
[8]; 125 g ai/ha
  Plant response rating: 95
[8]; 250 g ai/ha
  Plant response rating: 95
[9]; 31 g ai/ha
  Plant response rating: 95
[9]; 62 g ai/ha
  Plant response rating: 90
[9]; 125 g ai/ha
  Plant response rating: 90
[9]; 250 g ai/ha
  Plant response rating: 95
[10]; 16 g ai/ha
  Plant response rating: Bromegrass, Down: 20
[10]; 31 g ai/ha
  Plant response rating: Bromegrass, Down: 20
[10]; 62 g ai/ha
  Plant response rating: Bromegrass, Down: 25
[10]; 125 g ai/ha
  Plant response rating: Bromegrass, Down: 35
[11]; 16 g ai/ha
  Plant response rating: Foxtail, Green: 25
[11]; 31 g ai/ha
  Plant response rating: Foxtail, Green: 35
[11]; 62 g ai/ha
  Plant response rating: Foxtail, Green: 60
[11]; 125 g ai/ha
  Plant response rating: Foxtail, Green: 80

## Fc1ccc(-c2nc(OCC(F)(F)F)n(Cc3ccnc(C(F)(F)F)c3)n2)cc1 [Compound 30]
[12]; 31 g ai/ha
  Plant response rating: 50
[12]; 62 g ai/ha
  Plant response rating: 65
[12]; 125 g ai/ha
  Plant response rating: 75
[12]; 250 g ai/ha
  Plant response rating: 90
[1]; 31 g ai/ha
  Plant response rating: 50
[1]; 62 g ai/ha
  Plant response rating: 60
[1]; 125 g ai/ha
  Plant response rating: 70
[1]; 250 g ai/ha
  Plant response rating: 75
[13]; 31 g ai/ha
  Plant response rating: 90
[13]; 62 g ai/ha
  Plant response rating: 100
[13]; 125 g ai/ha
  Plant response rating: 100
[13]; 250 g ai/ha
  Plant response rating: 100
[2]; 16 g ai/ha
  Plant response rating: Canarygrass: 55
[2]; 31 g ai/ha
  Plant response rating: Canarygrass: 65
[2]; 62 g ai/ha
  Plant response rating: Canarygrass: 75
[2]; 125 g ai/ha
  Plant response rating: Canarygrass: 80
[3]; 31 g ai/ha
  Plant response rating: 10
[3]; 62 g ai/ha
  Plant response rating: 20
[3]; 125 g ai/ha
  Plant response rating: 20
[3]; 250 g ai/ha
  Plant response rating: 30
[4]; 16 g ai/ha
  Plant response rating: Chickweed: 70
[4]; 31 g ai/ha
  Plant response rating: Chickweed: 80
[4]; 62 g ai/ha
  Plant response rating: Chickweed: 100
[4]; 125 g ai/ha
  Plant response rating: Chickweed: 100
[5]; 31 g ai/ha
  Plant response rating: 90
[5]; 62 g ai/ha
  Plant response rating: 90
[5]; 125 g ai/ha
  Plant response rating: 100
[5]; 250 g ai/ha
  Plant response rating: 90
[6]; 31 g ai/ha
  Plant response rating: 25
[6]; 62 g ai/ha
  Plant response rating: 25
[6]; 125 g ai/ha
  Plant response rating: 40
[6]; 250 g ai/ha
  Plant response rating: 50
[7]; 31 g ai/ha
  Plant response rating: 95
[7]; 62 g ai/ha
  Plant response rating: 98
[7]; 125 g ai/ha
  Plant response rating: 100
[7]; 250 g ai/ha
  Plant response rating: 95
[8]; 31 g ai/ha
  Plant response rating: 95
[8]; 62 g ai/ha
  Plant response rating: 95
[8]; 125 g ai/ha
  Plant response rating: 95
[8]; 250 g ai/ha
  Plant response rating: 95
[9]; 31 g ai/ha
  Plant response rating: 95
[9]; 62 g ai/ha
  Plant response rating: 95
[9]; 125 g ai/ha
  Plant response rating: 95
[9]; 250 g ai/ha
  Plant response rating: 95
[10]; 16 g ai/ha
  Plant response rating: Bromegrass, Down: 30
[10]; 31 g ai/ha
  Plant response rating: Bromegrass, Down: 45
[10]; 62 g ai/ha
  Plant response rating: Bromegrass, Down: 65
[10]; 125 g ai/ha
  Plant response rating: Bromegrass, Down: 65
[14]; 31 g ai/ha
  Plant response rating: 70
[14]; 62 g ai/ha
  Plant response rating: 100
[14]; 125 g ai/ha
  Plant response rating: 100
[14]; 250 g ai/ha
  Plant response rating: 100
[11]; 16 g ai/ha
  Plant response rating: Foxtail, Green: 55
[11]; 31 g ai/ha
  Plant response rating: Foxtail, Green: 75
[11]; 62 g ai/ha
  Plant response rating: Foxtail, Green: 85
[11]; 125 g ai/ha
  Plant response rating: Foxtail, Green: 90
